The test system of assay [1] is T84. Kind of assay: Inhibition of calcium-mediated chloride secretion in the intestinal epithelial cell line T84 by measuring short circuit current at 200 uM concentration; Ineffective. To be noted: Homo sapiens. The assay is classed as functional, cell-based.
The test system of assay [2] is T84. Description: Inhibition of calcium-mediated chloride secretion in the intestinal epithelial cell line T84 by measuring short circuit current at 400 uM concentration; Maximum. The assay is classed as functional, cell-based. The note with it: Homo sapiens.

On to `CCCCO[C@@H]1C[C@H](OP(=O)(OCOC(C)=O)OCOC(C)=O)[C@@H](OP(=O)(OCOC(C)=O)OCOC(C)=O)[C@H](OP(=O)(OCOC(C)=O)OCOC(C)=O)[C@H]1OP(=O)(OCOC(C)=O)OCOC(C)=O` (racemic), for which the inhibition result in the assay on T84 [1] and with T84 [2] was “Ineffective” in each case.

Source of the values: ChEMBL document CHEMBL1131097, “2-Deoxy derivative is a partial agonist of the intracellular messenger inositol 3,4,5,6-tetrakisphosphate in the epithelial cell line T84” (J Med Chem, 1998).
